Data from patent US9273038B2, “Solid forms of an ion channel modulator” (Gilead Sciences, Inc., priority 2014, dated 2016).
In brackets after ≈: the same amount, converted by molar mass. Like-named read-outs stand apart in the source and are kept apart here.

Key:
Assay type in all cases: physicochemical
[1] = Determination of transition temperature between Forms I and II (slurries at 35 and 38° C., pXRD); conditions: slurries with and without Form II seeds, iPrOAc/n-heptane
Procedure: […] describes the set of experiments which concluded that Form I and II are enantiotropic forms and determined the transition temperature. Slurries of Form I with and without Form II seeds were stirred at 35° C. and 38° C. and samples were removed periodically for pXRD analysis. For slurries of Form I aged at 35° C., Form I dominated regardless of whether Form II seeds were present (albeit when Form II seeds were present, the full conversion to Form I took about 5 days) (Table 4). In contrast, slurries of Form I at 38° C. in the presence of Form II seeds rapidly turned over to Form II within 1 day and remained Form II even after the slurry was cooled to 20° C. for isolation. When no Form II seeds were present, Form I slurries remained unchanged even when aged at 38° C.

[2] = Extended stable form screen starting from Form II: solubility of filtrate by TGA; conditions: suspension of the solid in solvent, filtrate analysed, 21 °C, organic solvent or mixture, thermodynamic from solid, about 21° C.
Procedure: These experiments were performed at about 21° C. starting from Form II. After about 3 to 6 days in suspension two experiments produced full conversion from Form II to Form I; one became biphasic; and the rest remained Form II (FIG. 43). Three of the filtrates obtained from isolating the solid phase from samples became biphasic before the solubility could be measured by TGA.
After about 8 to 11 days in suspension the distribution of forms remained unchanged (FIG. 44). All of the filtrates except one became biphasic before solubility could be measured by TGA.

[3] = Dissolution test of Compound I Form VII in DI water; conditions: about 8 mg in 0.5 mL DI water; stirred overnight at room temperature; solid found: free base Form I
Procedure: A dissolution test of Compound I Form VII (about 8 mg) and 0.5 mL of DI water was performed. The solids were almost completely dissolved at first, and then more solids precipitated out. The slurry was allowed to be stirred overnight at room temperature before XRPD and ^1H NMR analyses, which confirm Compound I free base (Form I).

[4] = Dynamic vapor sorption (DVS) analysis; conditions: for Relative humidity of deliquescence (DVS): mono sulfate
Procedure: The solids with unique XRPD patterns were characterized by DSC, TGA, ^1H NMR, KF and DVS. All XRPD patterns were obtained in the experimental setting as follows: 45 kV, 40 mA, Kα1=1.5406 Å, scan range 2 to 40°, step size 0.0167°, counting time: 15.24 s. DSC and TGA analyses were performed using 10° C./min heating rate over the 20 to 350° C. temperature range.

[5] = Hydrate screen in ethanol/water and isopropanol/water: solubility and relative form stability; conditions: 2 weeks
Procedure: A hydrate screen starting from Form I was also conducted to evaluate whether hydrates of Compound I exist. The hydrate screen was conducted in ethanol/water (Table 6) and isopropanol/water (Table 7) mixtures, and in both cases, a new polymorph of Compound I was discovered (denoted as Form III).
From the initial hydrate screens presented in Table 6 and Table 7 no apparent trends were observed. In this case, all slurries of Form I in EtOH/water or IPA/water mixtures remained unchanged after 2 weeks (Table 8 and Table 9). Since Form III has been observed previously under the same conditions, it was suspected that the lack of form conversion is mainly due to slow kinetics. […] Attempts to determine the relative stability between Forms I and III at lower water activities were unsuccessful since Form I either was too soluble or oiled out at water activities of 0.8 or below.

[6] = Stable hydrate screen in methanol/water: solubility by TGA
Procedure: Since the hydrate screens from aqueous mixtures of ethanol and isopropyl alcohol were performed in a fairly narrow range of water activity (Aw≧0.8), it was desirable to determine the outcome over a wider range of water activities. An attempt was made to explore this using a system of methanol and water (Table 10). Form I was used as the starting material. […] At and above this Aw only Form I was found.

[7] = Relative stability of Compound I Forms XIV and XV (seeding, heating at about 130° C., XRPD); conditions: seeding experiments; Form XV heated at about 130° C. for about 10 minutes gave Form XIV
Procedure: In another experiment, Compound I FORM XV was heated at about 130° C. for about 10 minutes and cooled to about 21° C. prior to XRPD analysis.

O=C1c2cc(-c3ccc(OC(F)(F)F)cc3)ccc2OCCN1Cc1ncccn1 [Compound I Form II, 4-(pyrimidin-2-ylmethyl)-7-(4-(trifluoromethoxy)phenyl)-3,4-dihydrobenzo[f][1,4]oxazepin-5(2H)-one]
Relative stability of Forms I and II (in words) ([1]; listed as Form II): the more stable form at or above 38 °C | Solubility ([2]; Ethanol/n-heptane (1/4) v/v, 4-6 days, read-out: 4-6 Days Solubility): 32 mg/mL (≈ 77 mM) | Solubility ([2]; MIBK/n-heptane (1/4) v/v, 4-6 days, read-out: 4-6 Days Solubility): 26 mg/mL (≈ 62.6 mM) | Solubility ([2]; MIBK/n-heptane (1/4) v/v, 8-11 days, read-out: 8-11 Day Solubility): 35 mg/mL (≈ 84.3 mM) | Solubility ([2]; THF/n-heptane (1/4) v/v, 4-6 days, read-out: 4-6 Days Solubility): 29 mg/mL (≈ 69.8 mM)

Cc1ccc(S(=O)(=O)O)cc1.O=C1c2cc(-c3ccc(OC(F)(F)F)cc3)ccc2OCCN1Cc1ncccn1 [Compound I Form VII, 4-(pyrimidin-2-ylmethyl)-7-(4-(trifluoromethoxy)phenyl)-3,4-dihydrobenzo[f][1,4]oxazepin-5(2H)-one p-toluenesulfonic acid]
Stability in water (in words) [3]: unstable in water and dissociates in it | Hygroscopicity by DVS (in words) [4]: moderately hygroscopic | Moisture uptake at 90% RH (DVS) ([4]; 90% RH): about 2.75 wt % | Water adsorbed at 90% RH (DVS) ([4]; 90% RH): about 0.9 molar equivalents | Moisture uptake at 90% RH (DVS) ([4]; 90% RH, listed as Form VII): 2.75 wt % at | Hygroscopicity by DVS (in words) ([4]; listed as Form VII): Moderately

O=C1c2cc(-c3ccc(OC(F)(F)F)cc3)ccc2OCCN1Cc1ncccn1 [Compound I Form I, 4-(pyrimidin-2-ylmethyl)-7-(4-(trifluoromethoxy)phenyl)-3,4-dihydrobenzo[f][1,4]oxazepin-5(2H)-one]
Relative stability of Forms I and II (in words) ([1]; listed as Form I): the more stable form at below 35 °C | Form I Solubility mg/g (2 weeks) ([5]; 10% EtOH/water, water activity >0.9): 0.09 mg/g | Form I Solubility mg/g (2 weeks) ([5]; 10% IPA/water, water activity >0.9): 0.10 mg/g | Form I Solubility mg/g (2 weeks) ([5]; 20% EtOH/water, water activity 0.8-0.9): 0.10 mg/g | Form I Solubility mg/g (2 weeks) ([5]; 20% IPA/water, water activity >0.9): 0.18 mg/g | Form I Solubility mg/g (2 weeks) ([5]; 25% IPA/water, water activity >0.9): 0.65 mg/g | Form I Solubility mg/g (2 weeks) ([5]; 30% EtOH/water, water activity 0.8-0.9): 0.49 mg/g | Form I Solubility mg/g (2 weeks) ([5]; 30% IPA/water, water activity >0.9): 4.7 mg/g | Form I Solubility mg/g (2 weeks) ([5]; 35% EtOH/water, water activity 0.8-0.9): 1.3 mg/g | 3 days TGA ([6]; Aw 0.6, 3 days): 14 mg/mL | 3 days TGA ([6]; Aw 0.7, 3 days): 4.5 mg/mL | 14 days TGA ([6]; Aw 0.7, 14 days): 2 mg/mL | 3 days TGA ([6]; Aw 0.8, 3 days): 1.4 mg/mL | 14 days TGA ([6]; Aw 0.8, 14 days): 1 mg/mL | 3 days TGA ([6]; Aw 0.9, 3 days): 0.5 mg/mL | 14 days TGA ([6]; Aw 0.9, 14 days): <1 mg/mL | Solubility (in words) ([6]; Aw below 0.6, only solutions present): extraordinarily high

O=C1c2cc(-c3ccc(OC(F)(F)F)cc3)ccc2OCCN1Cc1ncccn1.O=S(=O)(O)O [Compound I Form XIV, 4-(pyrimidin-2-ylmethyl)-7-(4-(trifluoromethoxy)phenyl)-3,4-dihydrobenzo[f][1,4]oxazepin-5(2H)-one mono sulfate]
Relative humidity of deliquescence (DVS) ([4]; listed as Compound I FORM XIV): around 70 % RH | Relative humidity of deliquescence (DVS) [4]: about 70 % RH | Relative stability of Forms XIV and XV (in words) [7]: the more stable phase in comparison with Compound I FORM XV
